Values belong to the molecule of their own block, whether it stands above or below them. Calls of active or inactive are those of the source. The rule behind the calls is not given here.
Columns and labels:
[1] = molecular target: Protein cereblon/Eukaryotic peptide chain release factor GTP-binding subunit ERF3A (Homo sapiens, UniProt P15170+Q96SW2); assay: Molecular glue activity at LgBiT tagged CRBN/SmBiT tagged GSPT1 (unknown origin) transfected with HEK293T cells assessed as ternary complex formation incubated for 1 hr by Nano-Glo luminescence analysis; format: cell-based
[2] = molecular target: T1, Protein cereblon/Eukaryotic peptide chain release factor GTP-binding subunit ERF3A (Homo sapiens, UniProt Q96SW2+P15170); assay: Molecular glue activity at human full length wild type CRBN/Hibit tagged GSPT1 in human Jurkat cells assessed as induction of GSPT1 degradation; format: cell-based
Target sequence in this assay (Q96SW2 whole entry): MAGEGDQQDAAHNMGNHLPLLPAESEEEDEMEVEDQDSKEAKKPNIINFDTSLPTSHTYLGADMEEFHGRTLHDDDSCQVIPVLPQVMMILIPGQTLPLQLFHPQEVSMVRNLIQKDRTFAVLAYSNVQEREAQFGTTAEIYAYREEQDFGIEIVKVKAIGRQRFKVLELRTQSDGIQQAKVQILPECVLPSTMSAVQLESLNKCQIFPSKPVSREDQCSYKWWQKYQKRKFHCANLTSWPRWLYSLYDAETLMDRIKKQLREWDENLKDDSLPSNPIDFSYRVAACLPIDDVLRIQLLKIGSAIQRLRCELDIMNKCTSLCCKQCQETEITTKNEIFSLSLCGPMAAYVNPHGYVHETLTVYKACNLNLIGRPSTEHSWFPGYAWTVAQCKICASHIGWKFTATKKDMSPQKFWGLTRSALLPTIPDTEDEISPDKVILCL
Target sequence in this assay (P15170 whole entry): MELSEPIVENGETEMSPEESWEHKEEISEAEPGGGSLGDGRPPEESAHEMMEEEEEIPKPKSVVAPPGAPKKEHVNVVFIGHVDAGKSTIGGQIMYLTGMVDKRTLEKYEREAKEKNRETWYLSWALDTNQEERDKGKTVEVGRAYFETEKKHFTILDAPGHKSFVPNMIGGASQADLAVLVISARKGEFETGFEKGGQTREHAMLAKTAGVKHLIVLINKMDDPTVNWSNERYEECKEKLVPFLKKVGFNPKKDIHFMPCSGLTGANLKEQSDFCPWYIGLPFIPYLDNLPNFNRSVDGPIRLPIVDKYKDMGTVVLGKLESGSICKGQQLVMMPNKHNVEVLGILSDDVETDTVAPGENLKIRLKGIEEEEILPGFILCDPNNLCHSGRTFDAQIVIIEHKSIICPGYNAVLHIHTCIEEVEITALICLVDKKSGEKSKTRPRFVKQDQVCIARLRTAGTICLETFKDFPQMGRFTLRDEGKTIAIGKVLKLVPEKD

[3] = molecular target: Protein cereblon (Homo sapiens) (UniProt Q96SW2); assay: Binding affinity to CRBN (unknown origin) at 10 uM relative to control
Sequence of Protein cereblon (Homo sapiens) (Q96SW2 whole entry): as the sequence (Q96SW2 whole entry) above

Jurkat [4] = assay: Cytotoxicity against human Jurkat cells assessed as cell growth inhibition measured after 72 hrs by CellTiter-Glo assay; format: functional
[5] = molecular target: T2, Protein cereblon/Eukaryotic peptide chain release factor GTP-binding subunit ERF3B (Homo sapiens, UniProt Q96SW2+Q8IYD1); assay: Molecular glue activity at full length wild type CRBN/HiBit tagged GSPT2 in human Jurkat cells harbouring wildtype CRBN assessed as induction of GSPT2 degradation at 0.1 to 10 uM incubated for 6 hrs by Western blot analysis; format: cell-based; conditions: dose 0.1-10 µM
Target sequence in this assay (Q8IYD1 whole entry, looked up): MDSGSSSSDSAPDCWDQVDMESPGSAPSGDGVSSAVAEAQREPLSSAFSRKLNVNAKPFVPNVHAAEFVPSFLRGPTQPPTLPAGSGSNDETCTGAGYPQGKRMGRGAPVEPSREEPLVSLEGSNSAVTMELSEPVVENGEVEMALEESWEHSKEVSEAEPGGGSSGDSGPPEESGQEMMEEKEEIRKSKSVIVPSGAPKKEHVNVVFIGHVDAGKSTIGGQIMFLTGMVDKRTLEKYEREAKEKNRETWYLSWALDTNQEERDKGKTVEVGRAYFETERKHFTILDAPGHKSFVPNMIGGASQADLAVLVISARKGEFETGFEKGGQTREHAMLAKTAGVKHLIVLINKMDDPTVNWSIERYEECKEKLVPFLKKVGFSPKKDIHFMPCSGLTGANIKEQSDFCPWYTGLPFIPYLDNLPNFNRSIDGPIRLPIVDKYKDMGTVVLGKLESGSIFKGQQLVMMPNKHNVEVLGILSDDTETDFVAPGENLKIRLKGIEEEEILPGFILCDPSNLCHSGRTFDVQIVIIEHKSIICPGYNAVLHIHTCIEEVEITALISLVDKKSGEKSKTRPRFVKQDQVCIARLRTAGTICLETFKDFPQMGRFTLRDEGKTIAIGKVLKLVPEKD
Target sequence in this assay (Q96SW2 whole entry, looked up): as the sequence (Q96SW2 whole entry) above

[6] = molecular target: Protein cereblon (Homo sapiens) (UniProt Q96SW2); assay: Binding affinity to CRBN in HEK293T cells harbouring DDB1/Nanoluc assessed as decrease in BRET ratio incubated for 2 hrs NanoBRET engagement assay; format: cell-based; conditions: dose 1-30 µM
[7] = molecular target: T1, Protein cereblon/Eukaryotic peptide chain release factor GTP-binding subunit ERF3A; assay: Molecular glue activity at full length human wild type CRBN/HiBit tagged GSPT1 in HEK293T cells assessed as induction of GSPT1 degradation incubated for 6 hrs in presence of pomalidomide by Nano-Glo luminescence assay; format: cell-based
Target sequence in this assay (Q96SW2 whole entry): as above
Target sequence in this assay (P15170 whole entry): as the sequence (P15170 whole entry) above

[8] = molecular target: T1, Protein cereblon/Eukaryotic peptide chain release factor GTP-binding subunit ERF3A; assay: Molecular glue activity at full length wild type human CRBN/HiBit tagged GSPT1 in human Jurkat cells assessed as induction of GSPT1 degradation at 3 uM incubated for 6 hrs by Western blot analysis; format: cell-based
Target sequence in this assay (P15170 whole entry, looked up): as the sequence (P15170 whole entry) above
Target sequence in this assay (Q96SW2 whole entry, looked up): as the sequence (Q96SW2 whole entry) above

[9] = molecular target: T1, Protein cereblon/Eukaryotic peptide chain release factor GTP-binding subunit ERF3A; assay: Molecular glue activity at full length human wild type CRBN/HiBit tagged GSPT1 in HEK293T cells assessed as induction of GSPT1 degradation incubated for 6 hrs by Nano-Glo luminescence assay; format: cell-based
Target sequence in this assay (Q96SW2 whole entry): as above
Target sequence in this assay (P15170 whole entry): as the sequence (P15170 whole entry) above

[10] = molecular target: T2, Protein cereblon/Eukaryotic peptide chain release factor GTP-binding subunit ERF3B; assay: Molecular glue activity at human full length wildtype CRBN/HiBiT tagged GSPT2 in human MIA PaCa-2 cells transfected with CRBN-TurboID-V5 assessed as ternary complex formation at 1 uM preincubated for 4 hrs followed by bortezomib addition and measured after 2 hrs by TurboID analysis; format: cell-based; conditions: time 6.0 hrs
Target sequence in this assay (Q8IYD1 whole entry, looked up): as the sequence (Q8IYD1 whole entry, looked up) above
Target sequence in this assay (Q96SW2 whole entry, looked up): as the sequence (Q96SW2 whole entry) above

[11] = Selectivity ratio of GI50 for cytotoxicity against human HCT-116 cells assessed as cell growth inhibition measured after 72 hrs in presence of MLN4924 to GI50 for cytotoxicity against human HCT-116 cells assessed as cell growth inhibition measured after 72 hrs; format: functional
[12] = molecular target: T1, Protein cereblon/Eukaryotic peptide chain release factor GTP-binding subunit ERF3A; assay: Molecular glue activity at full length human wild type CRBN/HiBit tagged GSPT1 in human Jurkat cells assessed as induction of GSPT1 degradation incubated for 6 hrs by Western blot analysis; format: cell-based
Target sequence in this assay (Q96SW2 whole entry): as above
Target sequence in this assay (P15170 whole entry): as the sequence (P15170 whole entry) above

[13] = molecular target: T1, Protein cereblon/Eukaryotic peptide chain release factor GTP-binding subunit ERF3A; assay: Molecular glue activity at human full length wildtype CRBN/HiBiT tagged GSPT1 in human MIA PaCa-2 cells transfected with CRBN-TurboID-V5 assessed as ternary complex formation at 1 uM preincubated for 4 hrs followed by bortezomib addition and measured after 2 hrs by TurboID analysis; format: cell-based; conditions: time 6.0 hrs
Target sequence in this assay (P15170 whole entry, looked up): as the sequence (P15170 whole entry) above
Target sequence in this assay (Q96SW2 whole entry, looked up): as the sequence (Q96SW2 whole entry) above

[14] = Cytotoxicity against HEK293T cells assessed as cell growth inhibition measured after 72 hrs by CellTiter-Glo assay; format: toxicity, cell-based, HEK-293T; conditions: human
[15] = molecular target: T2, Protein cereblon/Eukaryotic peptide chain release factor GTP-binding subunit ERF3B; assay: Molecular glue activity at full length human wild type CRBN/HiBit tagged GSPT2 in human Jurkat cells assessed as induction of GSPT2 degradation at 0.1 to 10 uM incubated for 6 hrs in presence of bortezomib by Western blot analysis; format: cell-based; conditions: dose 0.1-10 µM
Target sequence in this assay (Q8IYD1 whole entry, looked up): as the sequence (Q8IYD1 whole entry, looked up) above
Target sequence in this assay (Q96SW2 whole entry, looked up): as the sequence (Q96SW2 whole entry) above

MCF7 = assay: Selectivity ratio of GI50 for cytotoxicity against human MCF7 cells assessed as cell growth inhibition measured after 72 hrs in presence of MLN4924 to GI50 for cytotoxicity against human MCF7 cells assessed as cell growth inhibition measured after 72 hrs; format: functional
[16] = Selectivity ratio of GI50 for cytotoxicity against human MIA PaCa-2 cells assessed as cell growth inhibition measured after 72 hrs in presence of MLN4924 to GI50 for cytotoxicity against human MIA PaCa-2 cells assessed as cell growth inhibition measured after 72 hrs; format: functional
[17] = molecular target: T1, Protein cereblon/Eukaryotic peptide chain release factor GTP-binding subunit ERF3A; assay: Molecular glue activity at full length human wild type CRBN/HiBit tagged GSPT1 in human Jurkat cells assessed as induction of GSPT1 degradation at 0.1 to 10 uM incubated for 6 hrs in presence of bortezomib by Western blot analysis; format: cell-based; conditions: dose 0.1-10 µM
Target sequence in this assay (P15170 whole entry, looked up): as the sequence (P15170 whole entry) above
Target sequence in this assay (Q96SW2 whole entry, looked up): as the sequence (Q96SW2 whole entry) above

[18] = molecular target: T1, Protein cereblon/Eukaryotic peptide chain release factor GTP-binding subunit ERF3A; assay: Molecular glue activity at full length human wild type CRBN/HiBit tagged GSPT1 in HEK293T cells assessed as induction of GSPT1 degradation at 1 uM incubated for 12 hrs by Western blot analysis; format: cell-based
Target sequence in this assay (P15170 whole entry, looked up): as the sequence (P15170 whole entry) above
Target sequence in this assay (Q96SW2 whole entry, looked up): as the sequence (Q96SW2 whole entry) above

[19] = molecular target: T1, Protein cereblon/Eukaryotic peptide chain release factor GTP-binding subunit ERF3A; assay: Molecular glue activity at full length human wild type CRBN/HiBit tagged GSPT1 in human KG-1 cells assessed as induction of GSPT1 degradation at 0.1 to 10 uM incubated for 6 hrs by Western blot analysis; format: cell-based; conditions: dose 0.1-10 µM
Target sequence in this assay (P15170 whole entry, looked up): as the sequence (P15170 whole entry) above
Target sequence in this assay (Q96SW2 whole entry, looked up): as the sequence (Q96SW2 whole entry) above

[20] = molecular target: T1, Protein cereblon/Eukaryotic peptide chain release factor GTP-binding subunit ERF3A; assay: Molecular glue activity at full length wild type human CRBN/HiBit tagged GSPT1 in human Jurkat cells harbouring cullin4 knockdown assessed as induction of GSPT1 degradation at 1 uM incubated for 6 hrs by Western blot analysis; format: cell-based
Target sequence in this assay (P15170 whole entry, looked up): as the sequence (P15170 whole entry) above
Target sequence in this assay (Q96SW2 whole entry, looked up): as the sequence (Q96SW2 whole entry) above

[21] = molecular target: T1, Protein cereblon/Eukaryotic peptide chain release factor GTP-binding subunit ERF3A; assay: Molecular glue activity at full length wild type CRBN/HiBit tagged GSPT1 in human Jurkat cells harbouring CRBN knockout assessed as induction of GSPT1 degradation at 0.1 to 10 uM incubated for 6 hrs by Western blot analysis; format: cell-based; conditions: dose 0.1-10 µM
MEF = assay: Molecular glue activity at CRBN W386A mutant/GSPT1 in mouse MEF cells harbouring CRBN knockout assessed as induction of GSPT1 degradation at 0.1 to 10 uM incubated for 24 hrs by Western blot analysis; format: cell-based; conditions: dose 0.1-10 µM
[22] = molecular target: T2, Protein cereblon/Eukaryotic peptide chain release factor GTP-binding subunit ERF3B; assay: Molecular glue activity at full length human wild type CRBN/GSPT2 in human Jurkat cells assessed as induction of GSPT2 degradation incubated for 6 hrs by Western blot analysis; format: cell-based
[23] = molecular target: T2, Protein cereblon/Eukaryotic peptide chain release factor GTP-binding subunit ERF3B; assay: Molecular glue activity at full length human wild type CRBN/GSPT2 in human Jurkat cells assessed as induction of GSPT2 degradation at 3 uM incubated for 6 hrs by Western blot analysis; format: cell-based
Target sequence in this assay (Q8IYD1 whole entry, looked up): as the sequence (Q8IYD1 whole entry, looked up) above
Target sequence in this assay (Q96SW2 whole entry, looked up): as the sequence (Q96SW2 whole entry) above

[24] = molecular target: T1, Protein cereblon/Eukaryotic peptide chain release factor GTP-binding subunit ERF3A; assay: Molecular glue activity at full length human wild type CRBN/HiBit tagged GSPT1 in HEK293T cells assessed as induction of GSPT1 degradation at 10 uM incubated for 6 hrs by Nano-Glo luminescence assay relative to control; format: cell-based
[25] = molecular target: T2, Protein cereblon/Eukaryotic peptide chain release factor GTP-binding subunit ERF3B; assay: Molecular glue activity at full length wild type CRBN/HiBit tagged GSPT2 in human Jurkat cells harbouring CRBN knockout assessed as induction of GSPT2 degradation at 0.1 to 10 uM incubated for 6 hrs by Western blot analysis; format: cell-based; conditions: dose 0.1-10 µM
Target sequence in this assay (Q8IYD1 whole entry, looked up): as the sequence (Q8IYD1 whole entry, looked up) above
Target sequence in this assay (Q96SW2 whole entry, looked up): as the sequence (Q96SW2 whole entry) above

[26] = Cytotoxicity against HEK293T cells assessed as cell growth inhibition measured after 72 hrs in presence of MLN4924 by CellTiter-Glo assay; format: toxicity, cell-based, HEK-293T; conditions: human
[27] = Cytotoxicity against human Jurkat cells assessed as cell growth inhibition measured after 72 hrs in presence of MLN4924 by CellTiter-Glo assay; format: toxicity, cell-based
[28] = molecular target: Protein cereblon/Eukaryotic peptide chain release factor GTP-binding subunit ERF3A (Mus musculus) (UniProt Q8C7D2+Q8R050); assay: Molecular glue activity at Wild type CRBN/GSPT1 in mouse MEF cells harbouring CRBN knockout assessed as induction of GSPT1 degradation at 0.1 to 10 uM incubated for 24 hrs by Western blot analysis; format: cell-based; conditions: dose 0.1-10 µM
[29] = molecular target: T1, Protein cereblon/Eukaryotic peptide chain release factor GTP-binding subunit ERF3A; assay: Molecular glue activity at full length human wild type CRBN/HiBit tagged GSPT1 in HEK293T cells assessed as induction of GSPT1 degradation at 0.1 to 10 uM incubated for 6 hrs by Western blot analysis; format: cell-based; conditions: dose 0.1-10 µM
Jurkat [30] = assay: Cytotoxicity against human Jurkat cells harbouring cullin4 knockdown assessed as cell growth inhibition measured after 72 hrs by CellTiter-Glo assay; format: functional
[31] = molecular target: T1, Protein cereblon/Eukaryotic peptide chain release factor GTP-binding subunit ERF3A; assay: Molecular glue activity at full length human wild type CRBN/HiBit tagged GSPT1 in HEK293T cells assessed as induction of GSPT1 degradation at 10 uM incubated for 6 hrs in presence of pomalidomide by Nano-Glo luminescence assay relative to control; format: cell-based
[32] = molecular target: T1, Protein cereblon/Eukaryotic peptide chain release factor GTP-binding subunit ERF3A; assay: Molecular glue activity at full length wild type CRBN/HiBit tagged GSPT1 in human Jurkat cells harbouring wildtype CRBN assessed as induction of GSPT1 degradation at 0.1 to 10 uM incubated for 6 hrs by Western blot analysis; format: cell-based; conditions: dose 0.1-10 µM

Structure (SMILES): COC(=O)c1nc(NC(=O)Cn2cncc(C)c2=O)sc1CCc1ccccc1
DC50 [2]: > 10 µM | Activity [3]: inactive

Structure (SMILES): COC(=O)c1nc(NC(=O)Cn2cnc3c(c2=O)CCC3)sc1CCc1ccccc1
DC50 [2]: > 10 µM | Activity [3]: -14.4%

Structure (SMILES): COC(=O)c1nc(NC(=O)Cn2cnc(C)cc2=O)sc1CCc1ccccc1
DC50 [2]: > 10 µM | Activity [3]: inactive

Structure (SMILES): COC(=O)c1nc(NC(=O)Cn2cnc(C)c(C)c2=O)sc1Cc1ccccc1
DC50 [2]: > 10 µM | Activity [3]: -5.6%

Structure (SMILES): COC(=O)c1nc(NC(=O)Cn2cnc(C)c(C)c2=O)sc1CCc1cccc(Cl)c1
DC50 [2]: > 10 µM | Activity [3]: inactive

Structure (SMILES): COC(=O)c1nc(NC(=O)Cn2cnccc2=O)sc1CCc1ccccc1
DC50 [2]: 4 µM | Activity [3]: 13.8%

Second part, led by results:

EC50 [1]: 0.1 µM
Structure (SMILES): Cc1ccc(NC(=O)NCc2ccc3c(c2)CN(C2CCC(=O)NC2=O)C3=O)cc1Cl (stereo unspecified)

DC50 [2]: > 10 µM | Activity [3]: inactive
Structure (SMILES): COC(=O)c1nc(NC(=O)Cn2cnc(C)c(C)c2=O)sc1CCc1ccc(Cl)cc1

DC50 [2]: > 10 µM | Activity [3]: -9%
Structure (SMILES): CNC(=O)c1nc(NC(=O)Cn2cnc(C)c(C)c2=O)sc1CCc1ccccc1

Activity [5]: Active | Activity [6]: Dose-dependent-effect | DC50 [7]: 45 µM | Activity [8]: Active | DC50 [9]: 200 nM | Activity [10]: inactive | DC50 [12]: 127 nM | Activity [13]: inactive | EC50 [1]: 11.4 µM | Activity [15]: inactive | DC50 [2]: 1.2 µM | Activity [17]: inactive | Activity [18]: Active | Activity [19]: Active | Activity [20]: inactive | Activity [21]: inactive | DC50 [22]: 42.2 nM | Activity [23]: Active | Emax [24]: 98.2% | Activity [25]: inactive | Activity [28]: Active | Activity [29]: Active | Emax [31]: 31.7% | Activity [32]: Active | Activity [3]: 47.6%
Structure (SMILES): COC(=O)c1nc(NC(=O)Cn2cnc(C)c(C)c2=O)sc1CCc1ccccc1
GI50 (Jurkat [4]): 500 nM | RatioGI50 [11]: 3 | GI50 at 72 h [14]: 800 nM | RatioGI50 (MCF7): 3 | RatioGI50 [16]: 3 | Activity (MEF): inactive | GI50 at 72 h [26]: 18.4 µM | GI50 at 72 h [27]: 1400 nM | GI50 (Jurkat [30]): 3.2 µM

From ChEMBL document CHEMBL6182904, “Discovery of a novel molecular glue degrader targeting GSPT1/2 with a non-IMiD-based CRBN binder” (Eur J Med Chem, 2025)
